System: primary rat hippocampal neurons
Assay: LDH release assay, primary rat hippocampal neurons
Format: cell-based
Settings: PD + SK-129 PMCA sample, 21 days; PD sample ~8-fold higher than control
Procedure: The rat embryos (both male and female) at embryonic day 18 were used to prepare the primary neurons according to previously published protocol. After removing all the meninges, the hippocampi were isolated from the fetal rat brain and kept in the dissection solution (1x HBSS, 10 mM HEPES buffer, 5 µg/mL Gentamicin, pH 7.3, Thermo Fisher Scientific, Waltham, MA). The hippocampi were minced and treated in the dissection solution containing 20 U/ml Papain (Worthington Biochemical Corp., Lakewood, NJ) and triturated in 50 µg/ml Dnase I (Sigma-Aldrich, St.Louis, MO). The isolated cells were plated on 1 mg/mL Poly-L-Lysine (Sigma-Aldrich, St.Louis, MO) coated μ-slide eight-well plate (Ibidi, Munich, Germany) at 200,000 cells/mL in neuron plating medium, which includes Minimum Essential Media (MEM)(Thermo Fisher Scientific, Waltham, MA) supplemented with 5% FBS (Thermo Fisher Scientific, Waltham, MA) and glucose (Sigma-Aldrich, St.Louis, MO). […]
The LDH assay was performed on the primary neurons treated with various conditions and incubated for 21 DIV. The release of LDH was measured using a Cytotox 96 Non-Radioactive Cytotoxicity Assay kit (Promega, Madison, WI) by following the instructions provided by the manufacturers. […] The absorbance of the media in the wells was measured at 490 nm using a 96-well plate reader.

## COC(=O)c1cc(OCC(=O)O)c2cccc(NC(=O)c3cc(OC(C)C)c4cccc(NC(=O)c5cc(OCC(=O)O)c6cccc(NC(=O)c7cc(OC(C)C)c8cccc([N+](=O)[O-])c8n7)c6n5)c4n3)c2n1 [SK-129]
  neurotoxicity (LDH release): did not observe any significant neurotoxicity
